Source: the supplement of paper PMC10307832

What was measured:
Assay in all cases: relative viability (nuclei count vs DMSO), 5 days (fraction); higher = more cells survive
Bortezomib + Lapatinib = compound: CC(C)C[C@H](NC(=O)[C@H](Cc1ccccc1)NC(=O)c1cnccn1)B(O)O [Bortezomib] + CS(=O)(=O)CCNCc1ccc(-c2ccc3ncnc(Nc4ccc(OCc5cccc(F)c5)c(Cl)c4)c3c2)o1 [Lapatinib] (partner 2 µM)
Procedure, shortened: (§1)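 Five library-drug doses in √10 steps were combined with a fixed anchor-drug dose, or a single drug was given alone, by pin tool to lung cancer cell lines in 1536-well plates the day after seeding. Nuclei were stained and counted after 5 days. Relative viability is the nuclei count in treated wells over that in vehicle wells, taken as the median of duplicate plates.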

Bortezomib + Alpelisib = compound: CC(C)C[C@H](NC(=O)[C@H](Cc1ccccc1)NC(=O)c1cnccn1)B(O)O [Bortezomib] + Cc1nc(NC(=O)N2CCC[C@H]2C(N)=O)sc1-c1ccnc(C(C)(C)C(F)(F)F)c1 [Alpelisib] (partner 2 µM)
Procedure, shortened: as §1

Obatoclax + Alpelisib = compound: COC1=CC(c2cc3ccccc3[nH]2)=N/C1=C\c1[nH]c(C)cc1C [Obatoclax] + Cc1nc(NC(=O)N2CCC[C@H]2C(N)=O)sc1-c1ccnc(C(C)(C)C(F)(F)F)c1 [Alpelisib] (partner 2 µM)
Procedure, shortened: as §1

Obatoclax + Dasatinib = compound: COC1=CC(c2cc3ccccc3[nH]2)=N/C1=C\c1[nH]c(C)cc1C [Obatoclax] + Cc1nc(Nc2ncc(C(=O)Nc3c(C)cccc3Cl)s2)cc(N2CCN(CCO)CC2)n1 [Dasatinib] (partner 0.075 µM)
Procedure, shortened: as §1

Cell Line | relative viability (Bortezomib + Lapatinib; first compound 0.0002 µM) | relative viability (Bortezomib + Lapatinib; first compound 0.000632 µM) | relative viability (Bortezomib + Lapatinib; first compound 0.002 µM) | relative viability (Bortezomib + Lapatinib; first compound 0.006325 µM) | relative viability (Bortezomib + Lapatinib; first compound 0.02 µM) | relative viability (Bortezomib + Alpelisib; first compound 0.0002 µM) | relative viability (Bortezomib + Alpelisib; first compound 0.000632 µM) | relative viability (Bortezomib + Alpelisib; first compound 0.002 µM) | relative viability (Bortezomib + Alpelisib; first compound 0.006325 µM) | relative viability (Bortezomib + Alpelisib; first compound 0.02 µM) | relative viability (Obatoclax + Alpelisib; first compound 0.01 µM) | relative viability (Obatoclax + Alpelisib; first compound 0.03162 µM) | relative viability (Obatoclax + Alpelisib; first compound 0.1 µM) | relative viability (Obatoclax + Alpelisib; first compound 0.3162 µM) | relative viability (Obatoclax + Alpelisib; first compound 1 µM) | relative viability (Obatoclax + Dasatinib; first compound 0.01 µM) | relative viability (Obatoclax + Dasatinib; first compound 0.03162 µM) | relative viability (Obatoclax + Dasatinib; first compound 0.1 µM) | relative viability (Obatoclax + Dasatinib; first compound 0.3162 µM) | relative viability (Obatoclax + Dasatinib; first compound 1 µM)
UMC-11 | 0.813 | 0.846 | 0.837 | 0.375 | 0.149 | 0.842 | 0.994 | 1.09 | 0.223 | 0.136 | 0.954 | 0.892 | 1.03 | 0.584 | 0.442 | 0.443 | 0.529 | 0.468 | 0.372 | 0.278
NCI-H1975 | 0.893 | 0.839 | 0.18 | 0.105 | 0.14 | 0.696 | 0.615 | 0.163 | 0.127 | 0.108 | 0.629 | 0.666 | 0.663 | 0.476 | 0.182 | 0.439 | 0.389 |  | 0.351 | 0.153
COR-L 105 | 0.358 | 0.354 | 0.334 | 0.344 | 0.349 | 0.911 | 1.04 | 0.909 | 0.237 | 0.227 | 1.02 | 1.21 | 0.944 | 0.904 | 0.336 | 0.4 | 0.358 | 0.372 | 0.265 | 0.246
LK-2 | 0.804 | 0.922 | 0.498 | 0.204 | 0.232 |  | 1.01 | 0.263 | 0.256 | 0.27 | 1.07 | 1.13 | 1.43 | 1.07 | 1.03 | 0.329 | 0.263 | 0.394 | 0.375 | 0.229
EKVX | 0.205 | 0.261 | 0.208 | 0.204 | 0.0816 | 0.94 | 0.934 | 0.932 | 0.733 | 0.0816 | 0.941 | 0.9 | 1.02 | 0.853 | 0.891 | 0.567 | 0.491 | 0.539 | 0.594 | 0.522
NCI-H2009 | 0.583 | 0.812 | 0.968 | 0.0615 | 0.0663 | 1.13 | 1.19 | 1.14 | 0.543 | 0.0447 | 1.08 | 1.16 | 1.19 | 1.13 | 0.286 | 0.297 | 0.367 | 0.252 | 0.208 | 0.197
NCI-H838 | 0.897 | 0.982 | 0.936 | 0.121 | 0.114 | 0.977 | 0.983 | 1.13 | 0.475 | 0.134 | 0.968 | 0.992 | 0.914 | 0.822 | 0.617 | 0.298 | 0.25 |  | 0.277 | 0.226
NCI-H2085 | 0.725 | 0.759 | 0.727 | 0.382 | 0.231 | 0.898 | 1.09 |  | 0.279 | 0.233 | 0.89 | 0.925 | 0.98 | 0.57 | 0.29 | 0.256 | 0.205 | 0.508 | 0.256 | 0.226
